# Data published in patent US20020052363A1, “Inhibitors of prenyl-protein transferase” (priority 2000, published 2002).
# Test system: prenyl-protein transferases
# Assay: the disclosed assays (not specified which)
compound,measurement,value
"Cc1cccc(Oc2cc(Cn3c(CN4CCN(C(=O)OC(C)(C)C)CC4)cnc3C)ccc2C#N)n1 [Example 1 Step G, 1-(tert-butoxycarbonyl)-4-[1-(3-((6-methyl-2-pyridyl)oxy)-4-cyanobenzyl)-2-methyl-5-imidazolylmethyl]piperazine]",activity in the disclosed assays,active
